Results taken from patent US7635722B1, “Chemical induced intracellular hyperthermia” (priority 1998, dated 2009).

Assays:
[1] = test system: candida; experiment: DNP hyperthermia, oral candidiasis (Example 2); format: in vivo, human
Description: Pretreatment protocol: all medications were stopped 2 weeks prior to treatment. The patient refused taking diazepam, placement of a Foley catheter and oxygen face mask. They dressed themself into a dry cold water immersion suit (Stearns, ISS-590I, Universal Adult) designed to prevent heat loss and modified for easy placement of physiologic monitors. Equipment for measurement of heart rate, temperature, carbon dioxide production and Kcal of heat produced were conducted as outlined in Example 1. An oral breathing tube was used to measure V02 from room air. Urine output was measured when the patient voluntarily urinated through a “Texas” catheter (superficial condom tightly fitted around the head of the penis with tubing connected to urine collection bag). The patient was informed that hyperthermia would be administered as tolerated by their stamina and monitored clinical parameters, not to exceed 5 hours, on a daily or every other day basis, for a total of 5 sessions.
Treatment procedure: Baseline reading for 5 minutes established an average V02 of 300 cc/min. An initial dose of 2 mg/kg of DNP was administered over a 2 minute period. V02 increased and stabilized at 15 minutes at 340-380 cc/min. An additional 2 mg/kg DNP infusion was given, the V02 increased and stabilized at 610-630 cc/min. […]

[2] = test system: musculocutaneous flap; experiment: musculocutaneous flap skin survival after DNP; format: in vivo; settings: after induction of heat shock proteins by DNP (FIG. 23)
From the text: (§1) This method of DNP induced preconditioning could be used to decrease intimal thickening and restenosis after angioplasty, improve ischemia/reperfusion injury in organ and tissue transplantation, and improve surgical outcome of procedures that require temporary or prolonged occlusion of arterial blood flow.

[3] = test system: tumors and normal fibroblasts; settings: many tumors and normal fibroblasts treated with DNP; cited from earlier work
[4] = test system: hepatitis C virus; experiment: DNP with interferon-alpha, chronic hepatitis C (Example 10); format: in vivo, human
Description: Pretreatment protocol: each evening prior to treatment the patient was instructed not to eat after 7 pm and dress in cotton clothes. Approximately 6 hours prior to intravenous DNP administration they were to be given 1.5 million units of subcutaneous interferon-alpha every 3rd day. Repeat blood work, including CBC and platelet count, AST, ALT, and hepatitis C-RNA levels would be initially obtained at 48 hours and weekly thereafter. No efforts were to be made to prevent body heat loss. A single intravenous line was placed with a 21-gauge interacath. Heart rate, rectal thermistor, and VO2 monitoring was conducted during therapy as outlined.
Treatment procedure: the patient presented themself for outpatient treatment and was given a subcutaneous dose of 1.5 million units of interferon-alpha. Approximately 6 hours thereafter, at 1 pm, a baseline VO2 recording of 5 minutes was 160 cc/min. They were infused with 1 mg/kg DNP over a 2 minute period. At 20 minutes, their VO2 increased and stabilized at approximately 210 cc/min. A second dose of 1 mg/kg DNP was infused and the VO2 peaked 20 minutes later at 250 cc/min. An additional dose of 2.0 mg/kg DNP was given 30 minutes following the second dose. […] The patient's rectal temperature increased and never exceeded 1.3° C. above their normal baseline. Two hours after their last dose of DNP, their VO2 declined to 280 cc/min. An additional 2 mg/kg dose of DNP was administered. The patients VO2 increased and stabilized 20 minutes thereafter to a level of 420 cc/min. […] Throughout treatment the patient was permitted to drink fluids ad libitum. […] The 5 day treatment protocol was repeated after a 2 day “DNP rest period”. This regimen was repeated times 3. Subcutaneous interferon-alpha was administered for a total of 10 weeks.

[5] = test system: arterial catheter balloon injury; experiment: arterial catheter balloon injury after DNP pretreatment; format: in vivo, Sprague-Dawley rats; settings: rats pretreated with DNP induced hyperthermia (FIG. 21)
From the text: as §1

[6] = test system: dimethyl benzo-dithionaphthene derived ascites fibrosarcoma; experiment: DNP induced hyperthermia with thermosensitive liposomes, ascites fibrosarcoma (Example 5); format: in vivo, Swiss albino mice
Description: The anticancer drug dacarbazine [5-(3,3′-dimethyl-1-triazino) imidazole-4-carboxamide] was encapsulated in these heat-sensitive liposomes at a concentration of 3 mg/ml. The in vivo efficacy of the thermosensitive, liposome encapsulated dacarbazine was tested on Swiss albino mice transplanted with a dimethyl benzo-dithionaphthene derived ascites fibrosarcoma subjected to DNP induced hyperthermia.
Male, 10-12-week-old, Swiss albino mice were injected with 3×10^6 viable fibrosarcoma cells into the peritoneum. After 15 days the animals were divided into various treatment and control groups receiving intraperitoneal injections of free dacarbazine, DNP alone, DNP+empty liposomes and DNP+liposome encapsulated dacarbazine. DNP induced hyperthermia was recorded with neonatal rectal and 22 ga. hypodermic YSI probes. Temperatures were recorded 30 minutes after a 20 mg/kg intraperitoneal dose of DNP. DNP was administered every day for a total of 5 doses. In all cases the hypodermic, intraperitoneal temperatures were 1° C. higher than the rectal.

[7] = test system: breast lesion; experiment: DNP enhanced infrared imaging, breast carcinoma (Example 8); format: in vivo, human
Description: Prediagnostic protocol: the patient was disrobed to the waist and sat with their hands interlocked over their head for a five minute equilibration period in a draft free, thermally controlled room—kept between 18° C. and 20° C. […] A baseline of 4 images consisting of an anterior, undersurface and 2 lateral views of each breast were generated by an integrated infrared imaging station consisting of a scanning mirror optical system containing a mercury-cadmium-telluride detector (Bales Scientific, CA). […] Images were stored on retrievable laser discs.
Diagnostic treatment protocol: after the above baseline studies were performed, the patient was given an initial intravenous dose of 1 mg/kg DNP and observed for a period of 20 minutes. An additional 2 mg/kg of DNP was then administered and 30 minutes thereafter, they were taken to the thermally controlled room for repeat DNP-enhanced infrared imaging. […] Repeat infrared images were then obtained under the exact protocol used for obtaining baseline studies.

[8] = test system: hepatic ischemic injury; experiment: hepatic ischemic injury by Pringle's maneuver after DNP pretreatment; format: in vivo; settings: Pringle's maneuver (FIG. 22)
From the text: as §1

## O=[N+]([O-])c1ccc(O)c([N+](=O)[O-])c1 [DNP, 2,4-dinitrophenol]
[1]; 3rd day of therapy
  oral candidiasis: no evidence of oral candidiasis
[1]; immediately after the first treatment
  improvement of oral candidiasis: 50%
[2]
  musculocutaneous flap skin survival: improved musculocutaneous flap skin survival
[3]
  increase in heat production: 83%
  increase in oxygen consumption: 36%
[4]; 18 months after therapy
  ALT: normalization
  HCV viral genome: remained cleared from their bloodstream
[4]; after 48 hours, DNP with interferon-alpha
  decrease of hepatitis C-RNA viral load: approximately 2 logs
[4]; at 48 hours, elevated until week 3
  increase of alanine transaminase (ALT) levels: 7 fold
[4]; at 48 hours, pretreatment levels at day 7
  increase of alkaline phosphatase levels: 2 fold
[4]; during treatment
  CBC, bilirubin, and blood urea nitrogen (BUN): remained within normal limits
[4]; over the next 5 days
  further decrease of viral load: an additional log
[4]; week 2 and thereafter
  HCV-RNA: undetectable
[5]
  proliferative arterial catheter balloon injury: limitation of proliferative arterial catheter balloon injury
[6]; 30 minutes after 20 mg/kg intraperitoneal DNP
  hypodermic, intraperitoneal temperature higher than the rectal: 1 °C
[6]; FIG. 20, DNP 20 mg/kg ip every day, 5 doses
  survival curves in comparison to controls: significantly improved
[6]; sham treated animals all died by 60
  animals remained alive: ≥ 100 days
[7]; DNP enhanced infrared imaging
  bilateral global breast temperature increase: approximately 0.5 °C
  increase in temperature in the palpable right breast lesion: 2.5 °C
[7]; lesion versus global breast increase of 0.5° C.
  increase in heat production above the DNP baseline increase: 5 fold
[8]
  effect of DNP pretreatment before hepatic ischemic injury: protective effect
